Data set [1] concerns EBC1. In words: Inhibition of cell viability (MTS), EBC1. It counts as cell-based. As to conditions: 96 hours incubation. The method in brief: (§1)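 Cells seeded at 2,000-7,500/well, attached ~24 h, then treated in duplicate with 1:2.5 serial dilutions at 0.5% final DMSO. Viability by MTS; EC50 from non-linear fit after background correction and normalisation to DMSO. MKN45 and EBC1 are cMET-dependent; A549 serves as negative control.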

Data set [2] addresses T1, cMET enzyme (amino acids 1023-1360) (Homo sapiens, UniProt P08581).
T1 construct: The cMET enzyme (amino acids 1023-1360) nominally at 24 μM was held at −80° C. until use; His tag (N, cleaved yes); made in house; host or cells: Sf9 cells
In words: Determination of inhibition of cMET (capillary electrophoresis, phosphorylated peptide product). As to conditions: 1.2 nM cMET, 50 μM ATP, 2 μM FL-2 peptide, 2 hours room temperature. It counts as biochemical.

Data set [3] has as its system A549. In words: Inhibition of cell viability (MTS), A549 (negative control line). It counts as cell-based. As to conditions: A549 cells (negative control), 96 hours incubation. An outline of the steps:
as §1

The test system of data set [4] is MKN45. In words: Inhibition of cell viability (MTS), MKN45. It counts as cell-based. Particulars: 96 hours incubation. An outline of the steps: as §1
Setting [5] is: Homo sapiens, EBC-1, 96 h, EBC1 cells.
The mark [6] stands for this setting: Homo sapiens, MKN-45, 96 h, MKN45 cells.
Where [7] appears, read: Homo sapiens, EBC-1, EBC1 cells.
Where [8] appears, read: Homo sapiens, MKN-45, MKN45 cells.

As usually defined, the EC50 is the concentration that produces a half-maximal response. In general, IC50 refers to the midpoint of a concentration-inhibition curve. Low values mean greater potency, high ones weaker potency. One may read the melting point as the temperature of the solid-liquid transition.

Where a name gives a salt, the structure may show the parent alone.

T1 sequence (P08581 1023-1360): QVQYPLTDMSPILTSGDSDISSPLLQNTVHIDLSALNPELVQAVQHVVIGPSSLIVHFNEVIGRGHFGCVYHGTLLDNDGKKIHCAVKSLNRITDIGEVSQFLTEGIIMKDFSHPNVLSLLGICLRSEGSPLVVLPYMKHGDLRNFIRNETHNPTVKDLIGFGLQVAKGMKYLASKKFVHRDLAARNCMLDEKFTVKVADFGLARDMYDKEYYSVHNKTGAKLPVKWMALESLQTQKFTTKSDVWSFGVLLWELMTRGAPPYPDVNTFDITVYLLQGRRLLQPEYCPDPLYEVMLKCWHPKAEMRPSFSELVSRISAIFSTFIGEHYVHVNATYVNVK

As for `Cn1cc(-c2ccc3nnn(Cc4ccc5nc(NC(=O)C6CC6)cn5n4)c3c2)cn1` [13 (free base), N-(6-((6-(1-methyl-1H-pyrazol-4-yl)-1H-benzo[d][1,2,3]triazol-1-yl)methyl)imidazo[1,2-b]pyridazin-2-yl)cyclopropanecarboxamide], the melting point is 250.2 to 251.6 °C. This compound gave an EC50 in data set [1] (EBC1 cells) of less than 30 nM. In data set [2], this compound registered a concentration for half-maximal inhibition (IC50) of 30 to 59 nM. This compound also came in with a 50% effective concentration (EC50) in data set [3] greater than 50000 nM. Besides, the EC50 in data set [4] (MKN45 cells) is less than 30 nM.

As for `O=C(Nc1cn2nc(Sc3nnc4ccc(-c5cnn(CCO)c5)cn34)ccc2n1)C1CC1` (as salt: HCl) [Compound 32], the melting point was 182 to 184 °C.

As to `CS(=O)(=O)c1cccc(-c2ccc3nnc(C(F)(F)c4ccc5nc(NC(=O)C6CC6)cn5n4)n3c2)c1` [Compound 88, N-(6-(difluoro(6-(3-(methylsulfonyl)phenyl)-[1,2,4]triazolo[4,3-a]pyridin-3-yl)methyl)imidazo[1,2-b]pyridazin-2-yl)cyclopropanecarboxamide], the EC50 was less than 30 nM in data set [1] (setting [5]); greater than 50000 nM in data set [3] (Homo sapiens, A549, 96 h); less than 30 nM in data set [4] (setting [6]). In addition, the IC50 in data set [2] was less than 30 nM.

Regarding `Cn1cc(-c2ccc3nnn(Cc4ccc5nc(NC(=O)C6CC6)cn5n4)c3c2)cn1` [13 (TFA Salt), Cyclopropanecarboxylic acid {6-[6-(1-methyl-1H-pyrazol-4-yl)-benzotriazol-1-ylmethyl]-imidazo[1,2-b]pyridazin-2-yl}-amide], the EC50 is less than 30 nM in data set [1] (EBC1 cells), 5000 to 8000 nM in data set [3] and 60 to 100 nM in data set [4] (MKN45 cells). This compound also registered a half-inhibitory concentration (IC50) in data set [2] of 30 to 59 nM.

As to `CC(c1ccc2nc(NC(=O)C3CC3)cn2n1)c1nnc2ccc(-c3cccc(C(N)=O)c3)cn12` (centres unmarked) [Compound 66, 3-(3-(1-(2-(cyclopropanecarboxamido)imidazo[1,2-b]pyridazin-6-yl)ethyl)-[1,2,4]triazolo[4,3-a]pyridin-6-yl)benzamide], the half-maximal effective concentration (EC50) is 100 to 249 nM in data set [1] (setting [5]); greater than 50000 nM in data set [3] (Homo sapiens, A549, 96 h); 100 to 249 nM in data set [4] (setting [6]). Also, the half-maximal inhibitory concentration (IC50) in data set [2] was less than 30 nM.

Consider `Cn1cc(-c2ccc3nnc(C(F)(F)c4ccc5nc(NC(=O)C6CC6)cn5n4)n3c2)cn1` [45 (HCl Salt), N-(6-(Difluoro(6-(1-methyl-1H-pyrazol-4-yl)-[1,2,4]triazolo[4,3-a]pyridin-3-yl)methyl)imidazo[1,2-b]pyridazin-2-yl)cyclopropanecarboxamide hydrochloride], for which the EC50 in data set [1] (setting [5]) was less than 30 nM; in data set [3] (Homo sapiens, A549, 96 h), greater than 50000 nM; in data set [4] (setting [6]), less than 30 nM. Also, the IC50 in data set [2] was less than 30 nM.

For `N#Cc1cc(-c2ccc3nnc(Sc4ccc5nc(NC(=O)C6CC6)cn5n4)n3c2)cnc1O` [Compound 108, N-(6-(6-(5-cyano-6-hydroxypyridin-3-yl)-[1,2,4]triazolo[4,3-a]pyridin-3-ylthio)imidazo[1,2-b]pyridazin-2-yl)cyclopropanecarboxamide], the concentration giving a half-maximal response (EC50) is 8000 to 25000 nM in data set [1] (setting [5]); greater than 50000 nM in data set [3] (Homo sapiens, A549, 96 h); 8000 to 25000 nM in data set [4] (setting [6]). In data set [2], the IC50 is 30 to 59 nM.

With `O=C(Nc1cn2nc(Sc3nnc4ccc(C#CCO)cn34)ccc2n1)C1CC1` [Compound 37, N-(6-(6-(3-hydroxyprop-1-ynyl)-[1,2,4]triazolo[4,3-a]pyridin-3-ylthio)imidazo[1,2-b]pyridazin-2-yl)cyclopropanecarboxamide], the EC50 is 100 to 199 nM in data set [1] (setting [5]); greater than 50000 nM in data set [3] (Homo sapiens, A549, 96 h); 250 to 630 nM in data set [4] (setting [6]). The compound also had an IC50 in data set [2] of 30 to 59 nM.

Take `COc1ccc(-c2ccc3nnc(Sc4ccc5nc(NC(=O)C6CC6)cn5n4)n3c2)cn1` [Compound 102, N-(6-(6-(6-methoxypyridin-3-yl)-[1,2,4]triazolo[4,3-a]pyridin-3-ylthio)imidazo[1,2-b]pyridazin-2-yl)cyclopropanecarboxamide]: the EC50 in data set [1] (setting [5]) is 30 to 59 nM; in data set [3] (Homo sapiens, A549, 96 h) it was greater than 50000 nM; in data set [4] (setting [6]), 60 to 100 nM. The compound also gave an IC50 in data set [2] of 30 to 59 nM.

As for `CC(c1ccc2nc(NC(=O)C3CC3)cn2n1)c1nnc2ccc(-c3cnn(C)c3)cn12` (centres unmarked) [49 (TFA Salt), N-(6-(1-(6-(1-methyl-1H-pyrazol-4-yl)-[1,2,4]triazolo[4,3-a]pyridin-3-yl)ethyl)imidazo[1,2-b]pyridazin-2-yl)cyclopropanecarboxamide], the concentration giving a half-maximal response (EC50) is 60 to 100 nM in data set [1] (EBC1 cells), greater than 50000 nM in data set [3] and 60 to 100 nM in data set [4] (MKN45 cells). The compound further displayed a concentration for half-maximal inhibition (IC50) in data set [2] of 30 to 59 nM.

As to `COCCOCn1cc(-c2ccc3nnc(Sc4ccc5nc(NC(=O)C6CC6)cn5n4)n3c2)cn1` [Compound 29, N-(6-(6-(1-((2-methoxyethoxy)methyl)-1H-pyrazol-4-yl)-[1,2,4]triazolo[4,3-a]pyridin-3-ylthio)imidazo[1,2-b]pyridazin-2-yl)cyclopropanecarboxamide], the concentration giving a half-maximal response (EC50) in data set [1] (setting [7]) was 35 to 99 nM; in data set [3] (Homo sapiens), greater than 50000 nM; in data set [4] (setting [8]) it was less than 100 nM. This compound yielded an IC50 in data set [2] of 60 to 100 nM.

Take `O=C(Nc1cn2nc(C(F)(F)c3nnc4ccc(-c5cccnc5)cn34)ccc2n1)C1CC1` [Compound 78, N-(6-(difluoro(6-(pyridin-3-yl)-[1,2,4]triazolo[4,3-a]pyridin-3-yl)methyl)imidazo[1,2-b]pyridazin-2-yl)cyclopropanecarboxamide]: the EC50 was less than 30 nM in data set [1] (setting [5]); greater than 50000 nM in data set [3] (Homo sapiens, A549, 96 h); less than 30 nM in data set [4] (setting [6]). This compound gave a concentration for half-maximal inhibition (IC50) in data set [2] of 30 to 59 nM.

On to `N#Cc1ccc2nnc(Sc3ccc4nc(NC(=O)C5CC5)cn4n3)n2c1` [Compound 6, N-(6-(6-cyano-[1,2,4]triazolo[4,3-a]pyridin-3-ylthio)imidazo[1,2-b]pyridazin-2-yl)cyclopropanecarboxamide], for which the concentration giving a half-maximal response (EC50) in data set [1] (setting [7]) is greater than 200 nM; in data set [3] (Homo sapiens) it was greater than 50000 nM; in data set [4] (setting [8]) it was greater than 630 nM. The IC50 in data set [2] was greater than 100 nM.

Take `CC(c1ccc2nc(NC(=O)C3CC3)cn2n1)c1nnc2ccc(-c3ccc(C#N)cc3)cn12` (centres unmarked) [Compound 63, N-(6-(1-(6-(4-cyanophenyl)-[1,2,4]triazolo[4,3-a]pyridin-3-yl)ethyl)imidazo[1,2-b]pyridazin-2-yl)cyclopropanecarboxamide]: the concentration for a half-maximal effect (EC50) in data set [1] (setting [5]) is less than 30 nM; in data set [3] (Homo sapiens, A549, 96 h) it was greater than 50000 nM; in data set [4] (setting [6]), less than 30 nM. For the same compound, the IC50 in data set [2] was less than 30 nM.

For `O=C(Nc1cn2nc(Cn3nnc4ccc(-c5cnn(CCO)c5)cc43)ccc2n1)C1CC1` [Compound 24], the EC50 in data set [1] (setting [5]) was 35 to 99 nM; in data set [3] (Homo sapiens, A549, 96 h), greater than 50000 nM; in data set [4] (setting [6]), 100 to 249 nM. The compound further had an IC50 in data set [2] of 60 to 100 nM.

For `CC(c1ccc2nc(NC(=O)C3CC3)cn2n1)c1nnc2ccc(-c3cccc(F)c3)cn12` (centres unmarked) [Compound 65, N-(6-(1-(6-(3-fluorophenyl)-[1,2,4]triazolo[4,3-a]pyridin-3-yl)ethyl)imidazo[1,2-b]pyridazin-2-yl)cyclopropanecarboxamide], the EC50 is less than 30 nM in data set [1] (setting [5]); greater than 50000 nM in data set [3] (Homo sapiens, A549, 96 h); less than 30 nM in data set [4] (setting [6]). This compound gave an IC50 in data set [2] of less than 30 nM.

These data come from patent publication US8178534B2, “cMET inhibitors” (Takeda Pharmaceutical Company Limited, priority 2008, dated 2012).
